Experimental data: patent US20130289089A1, “Pharmaceutical Compositions for Topical Delivery of Photosensitizers and Uses Thereof” (priority 2011, published 2013)

Experiments:
Format in all cases: physicochemical
[1] = Solubility of lemuteporfin in various solvents (HPLC analysis)
Text: The solubility of lemuteporfin in various solvent compositions is shown in the last column of Table 2. All values were obtained analytically by HPLC analysis.
Solubility results for lemuteporfin indicated maximum solubility in solvent-based formulations containing primarily benzyl alcohol. […] The addition of other solvents reduced solubility by approximately the amount of the new solvent introduced. Diethylene glycol monoethyl ether (DGME) is about 20% as efficient at dissolving lemuteporfin as benzyl alcohol.

[2] = Solubility of lemuteporfin in the LTS formulation (stirred, sampled, filtered)
Method: LTS was prepared by adding lemuteporfin to the other components in Table 4 (already pre-mixed) at room temperature. The solution was stirred and samples were removed at various time points, and filtered to determine the amount of undissolved lemuteporfin. The amount of lemuteporfin that dissolved was approximately 0.048%.
Studies were conducted to determine the effect of certain of the LTS excipients on the solubility of lemuteporfin.

[3] = Stability of supersaturated/reconstituted lemuteporfin solutions up to 4 hours (filtered, HPLC); settings: up to 4 hours post-reconstitution
Method: Samples of the compositions are taken at various time points after combining the photosensitizing component and the excipient component. Half of the samples are filtered to remove any precipitates, for example through a 0.22 μm filter. The filtered solutions are analyzed, for example, using HPLC, for the content or concentration of photosensitizer. If the solution is stable, and no photosensitizer has precipitated out, then the concentration of photosensitizer in the filtered solution should be roughly the same as the concentration of photosensitizer in the unfiltered solution, within experimental error.
Three formulations (Batches C (Table 8), D (Table 9) and H (Table 10)) in which the Vial 1 photosensitizer component consisted of benzyl alcohol and lemuteporfin at three lemuteporfin concentrations, 0.1, 0.075 and 0.05% w/w in the final combined LTS solution were examined for stability after reconstitution with the remaining excipients in Vial 2.
Vial 2 contents were added to vial 1 for each formulation, mixed and sampled at time 0 and 4 hours after reconstitution. The samples were filtered through a 0.22 μm filter before analysis by HPLC. This analysis was performed to ensure that the combined product had adequate stability and would not precipitate before administration to a subject. […]

Efficiency of DGME at dissolving lemuteporfin relative to benzyl alcohol ([1]; DGME versus benzyl alcohol): about 20%
Solubility, % w/w Lemuteporfin ([1]; solvent % w/w: DGME 45, benzyl alcohol 45, oleyl alcohol 5, oleic acid 5): 1.373 % w/w
Solubility, % w/w Lemuteporfin ([1]; solvent % w/w: DGME 50, benzyl alcohol 15, oleic acid 35): 0.230 % w/w
Solubility, % w/w Lemuteporfin ([1]; solvent % w/w: DGME 50, benzyl alcohol 15, oleyl alcohol 35): 0.200 % w/w
Solubility, % w/w Lemuteporfin ([1]; solvent % w/w: DGME 50, benzyl alcohol 50): 1.57 % w/w
Solubility, % w/w Lemuteporfin ([1]; solvent % w/w: DGME 52, benzyl alcohol 16, oleyl alcohol 16, oleic acid 16): 0.210 % w/w
Solubility, % w/w Lemuteporfin ([1]; solvent % w/w: DGME 65, oleyl alcohol 17.5, oleic acid 17.5): 0.271 % w/w
Solubility, % w/w Lemuteporfin ([1]; solvent % w/w: DGME 65, oleyl alcohol 35): 0.430 % w/w
Solubility, % w/w Lemuteporfin ([1]; solvent % w/w: DGME 90, isopropyl myristate 10): 0.430 % w/w
Solubility, % w/w Lemuteporfin ([1]; solvent % w/w: DGME 90, oleyl alcohol 5, oleic acid 5): 0.420 % w/w
Solubility, % w/w Lemuteporfin ([1]; solvent % w/w: DGME 90, oleyl alcohol 10): 0.420 % w/w
Solubility, % w/w Lemuteporfin ([1]; solvent % w/w: benzyl alcohol 30, ethanol (190) 70): 0.455 % w/w
Solubility, % w/w Lemuteporfin ([1]; solvent % w/w: benzyl alcohol 30, oleyl alcohol 70): 0.166 % w/w
Solubility, % w/w Lemuteporfin ([1]; solvent % w/w: benzyl alcohol 40, isopropyl myristate 60): 0.090 % w/w
Solubility, % w/w Lemuteporfin ([1]; solvent % w/w: benzyl alcohol 50, ethanol (190) 50): 0.453 % w/w
Solubility, % w/w Lemuteporfin ([1]; solvent % w/w: benzyl alcohol 50, oleic acid 50): 0.409 % w/w
Solubility, % w/w Lemuteporfin ([1]; solvent % w/w: benzyl alcohol 50, oleyl alcohol 50): 0.228 % w/w
Solubility, % w/w Lemuteporfin ([1]; solvent % w/w: benzyl alcohol 50, propylene glycol 50): 0.494 % w/w
Solubility, % w/w Lemuteporfin ([1]; solvent % w/w: benzyl alcohol 90, isopropyl myristate 10): 2.30 % w/w
Solubility, % w/w Lemuteporfin ([1]; solvent % w/w: benzyl alcohol 90, oleic acid 10): 2.33 % w/w
Solubility, % w/w Lemuteporfin ([1]; solvent % w/w: benzyl alcohol 90, oleyl alcohol 5, oleic acid 5): 2.22 % w/w
Solubility, % w/w Lemuteporfin ([1]; solvent % w/w: benzyl alcohol 90, oleyl alcohol 10): 2.24 % w/w
Solubility, % w/w Lemuteporfin ([1]; solvent: benzyl alcohol 100 % w/w): 2.55 % w/w
Solubility of lemuteporfin in the LTS solution system ([2]; isopropyl alcohol removed (data not shown)): ~0.07 % w/w
Amount of lemuteporfin that dissolved in the Table 4 components ([2]; room temperature): approximately 0.048%
Lemuteporfin content (% w/w), dissolved in formulation of Table 4 ([2]; room temperature, time point 0.17 hours): 0.0241 % w/w
Lemuteporfin content (% w/w), dissolved in formulation of Table 4 ([2]; room temperature, time point 2.47 hours): 0.0482 % w/w
Lemuteporfin content (% w/w), dissolved in formulation of Table 4 ([2]; room temperature, time point 4.37 hours): 0.0453 % w/w
Lemuteporfin content (% w/w), dissolved in formulation of Table 4 ([2]; room temperature, time point 6.37 hours): 0.0463 % w/w
Lemuteporfin content (% w/w), dissolved in formulation of Table 4 ([2]; room temperature, time point 23.5 hours): 0.0370 % w/w
Solubility of lemuteporfin in the LTS solution system ([2]; with isopropyl alcohol (data not shown)): approximately 0.03 % w/w
Solubility of lemuteporfin in the LTS solution system ([2]; with polysorbate 80 (data not shown)): 0.037 % w/w
Solubility of lemuteporfin in the LTS solution system ([2]; without polysorbate 80 (data not shown)): 0.027 % w/w
Precipitation after reconstitution [3]: has not precipitated out of solution
Substance: lemuteporfin
